Assay results as given in patent US20160120848A1, “SPECIFIC CANCER TREATMENT REGIMES WITH GANETESPIB” (SYNTA PHARMACEUTICALS CORP., priority 2013, published 2016).

Experiments:
[1] = system: triple-negative breast cancer; experiment: Phase 3 study of ganetespib in combination with docetaxel; assay type: in vivo, patients; settings: ganetespib 150 mg/m^2 in combination with docetaxel 75 mg/m^2
Description: This is an open-label, multicenter, randomized Phase 3 study of patients with triple-negative breast cancer (TNBC). Eligible patients are previously untreated for their advanced or metastatic disease and have measurable disease as defined by Response Evaluation Criteria in Solid Tumors (RECIST). Patients are randomized in a 1:1 ratio to receive either ganetespib in combination with docetaxel or docetaxel alone. The study compares the efficacy and tolerability of ganetespib in combination with docetaxel versus docetaxel alone.
The study enrolls approximately 300 patients over a planned 30-month period, and patients are randomized into one of two treatment arms:
Arm A (combination arm): Ganetespib 150 mg/m^2 in combination with docetaxel 75 mg/m^2. On Day 1 of each 3-week treatment cycle, ganetespib and docetaxel are administered as separate 1-hour intravenous infusions. Administration of ganetespib precedes the administration of docetaxel. There is a 1-hour “rest” period following the end of the ganetespib infusion prior to docetaxel infusion. Ganetespib 150 mg/m^2 is administered again on Day 15 of each cycle […]
Clinical and laboratory parameters are assessed to evaluate disease status and toxicity in all patients. […] The post-dose ECG is recorded within approximately 60 minutes after the end of the ganetespib infusion or as soon as feasible. […]

[2] = system: cancers with genetic profiles driven by strong Hsp90 clients; experiment: Earlier clinical results for ganetespib, monotherapy and with taxanes; assay type: in vivo
Description: The clinical study aims to achieve this goal by using ganetespib to target what may be a central driver of ovarian cancer aggressiveness and metastatic ability, namely mutant p53.

[3] = system: non-small cell lung cancer; experiment: Phase I study of ganetespib with cisplatin/pemetrexed, carboplatin/pemetrexed or carboplatin/paclitaxel; assay type: in vivo, patients; settings: combination with cisplatin/pemetrexed
Description: This is a Phase 1, open-label, dose-escalation study in patients with advanced NSCLC with adenocarcinoma histology.
Cohort 1: patients treated with ganetespib, cisplatin and pemetrexed
Cohort 2: patients treated with ganetespib, carboplatin and pemetrexed
Cohort 3: patients treated with ganetespib, carboplatin and paclitaxel
In Cohort 1, one treatment cycle consists of treatment with ganetespib, cisplatin and pemetrexed on Day 1, and ganetespib on Day 15
In Cohort 2, one treatment cycle consists of treatment with ganetespib, carboplatin and pemetrexed on Day 1, and ganetespib on Day 15
In Cohort 3, one treatment cycle consists of treatment with ganetespib, carboplatin and paclitaxel on Day 1, and ganetespib on Day 15
Treatment cycles are repeated every 3 weeks. The total planned number of combination cycles is 4. Ganetespib is administered on Days 1 and 15 of each cycle; cisplatin and pemetrexed, carboplatin and pemetrexed, or carboplatin and paclitaxel are administered on Day 1 of each cycle. Each agent is administered as a separate infusion (see Dose-Escalation Table below). […]
Duration of treatment: the duration of the combination treatment for each regimen is 4 treatment cycles, if tolerated. Patients who complete 4 combination-treatment cycles are evaluated for tumor disease response, general performance status and toxicities. […]

[4] = system: complex between Hsp90 and mutant p53; experiment: Preclinical study of Hsp90 inhibition by ganetespib in mutant p53 cells; assay type: cell-based
[5] = combination of ganetespib and taxanes

CC(C)c1cc(-c2n[nH]c(=O)n2-c2ccc3c(ccn3C)c2)c(O)cc1O [ganetespib]
efficacy [1]: efficacious | safety profile [1]: good safety profile | activity [2, 5]: favorable | safety profile [2, 5]: favorable | tumor responses ([2]; ganetespib monotherapy, cancers with genetic profiles driven by strong Hsp90 clients): durable objective tumor responses | efficacy [3]: efficacious | safety profile [3]: good safety profile | anti-cancer activity [4]: potent anti-cancer activity | anti-cancer activity in cells with mutant p53 compared with other cells [4]: substantially stronger in cells with mutant p53 | effect on complex between Hsp90 and mutant p53 [4]: destroyed the complex between Hsp90 and mutant p53 | effect on mutant p53 protein [4]: inducing the degradation of mutant p53 | sensitization of mutant p53 cancer cells to treatment with chemotherapies ([4]; inhibition of Hsp90): strongly sensitize
